Results published in ChEMBL document CHEMBL5518249, “Structure-Guided Discovery and Preclinical Assessment of Novel (Thiophen-3-yl)aminopyrimidine Derivatives as Potent ERK1/2 Inhibitors” (J Med Chem, 2024).

Experiments:
RKO [1] = assay: cells; conditions: Homo sapiens, 24 h
Description: Antiproliferative activity against human RKO cells assessed as cell viability incubated for 24 hrs by methyl thiazolyl tetrazolium (MTT) assay

MDA-MB-231 [2] = assay: cells; conditions: Homo sapiens, MDA-MB-231, 24 h
Description: Antiproliferative activity against human MDA-MB-231 cells assessed as cell viability incubated for 24 hrs by methyl thiazolyl tetrazolium (MTT) assay

[3] = molecular target: Mitogen-activated protein kinase 3 (Homo sapiens, UniProt P27361)
Description: Inhibition of ERK1 (unknown origin) assessed as luminescence in presence of ATP incubated for 90 mins by ADP-Glo kinase assay

MDA-MB-231 [4] = assay: animal or person; assay type: functional, Homo sapiens; conditions: Mus musculus, MDA-MB-231, po, 360 h, route ig, time 15 day, read-out: TGI
Description: In vivo antitumor activity against human MDA-MB-231 cells xenografted in BALB/c mouse model assessed as tumor growth inhibition at 50 mg/kg, IG once daily for 15 days relative to control

RKO [5] = assay: animal or person; assay type: functional, Homo sapiens; conditions: Mus musculus, po, 360 h, route ig, time 15 day, read-out: TGI
Description: In vivo antitumor activity against human RKO cells xenografted in BALB/c mouse model assessed as tumor growth inhibition at 50 mg/kg, IG once daily for 15 days relative to control

Sequence of Mitogen-activated protein kinase 3 (P27361 whole entry): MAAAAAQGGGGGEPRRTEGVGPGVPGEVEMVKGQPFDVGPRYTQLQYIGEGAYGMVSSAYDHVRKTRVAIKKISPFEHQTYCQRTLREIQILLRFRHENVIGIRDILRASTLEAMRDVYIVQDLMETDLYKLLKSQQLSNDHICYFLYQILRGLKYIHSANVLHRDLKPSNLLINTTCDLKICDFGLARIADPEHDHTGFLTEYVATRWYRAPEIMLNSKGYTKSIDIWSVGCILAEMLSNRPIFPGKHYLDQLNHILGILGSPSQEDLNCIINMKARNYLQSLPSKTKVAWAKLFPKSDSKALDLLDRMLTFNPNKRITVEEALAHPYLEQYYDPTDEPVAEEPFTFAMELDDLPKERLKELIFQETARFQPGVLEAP

Row | IC50 (RKO [1]) | IC50 (MDA-MB-231 [2]) | IC50 [3] | SMILES | inhibition in vivo at 50 mg/kg (MDA-MB-231 [4]) | inhibition in vivo at 50 mg/kg (RKO [5])
1 | 12.6 µM | 11.5 µM |  | Cn1nccc1Nc1ncc(Cl)c(-c2csc(C(=O)NCc3ccc(Cl)c(F)c3)c2)n1 |  | 
2 | 41.2 µM | 39.4 µM |  | Cn1nccc1Nc1ncc(Cl)c(-c2csc(C(=O)NCc3ccc(C(F)(F)F)cc3)c2)n1 |  | 
3 | 10.2 µM | 12.4 µM |  | Cn1nccc1Nc1ncc(Cl)c(-c2csc(C(=O)NCc3ccc(Cl)c(Cl)c3)c2)n1 |  | 
4 | 24.5 µM | 21.1 µM |  | Cn1nccc1Nc1ncc(Cl)c(-c2csc(C(=O)NCc3cccc(C(F)(F)F)c3)c2)n1 |  | 
5 | 14.5 µM | 15.8 µM |  | Cn1nccc1Nc1ncc(Cl)c(-c2csc(C(=O)NCc3ccc(F)cc3)c2)n1 |  | 
6 | > 50 µM | > 50 µM |  | Cn1nccc1Nc1ncc(Cl)c(-c2csc(C(=O)NCc3ccccc3Br)c2)n1 |  | 
7 | > 50 µM | > 50 µM |  | Cn1nccc1Nc1ncc(Cl)c(-c2csc(C(=O)NCc3ccc(F)cc3F)c2)n1 |  | 
8 | 49.4 µM | > 50 µM |  | Cn1ccc(Nc2ncc(Cl)c(-c3csc(C(=O)NCc4ccc(F)c(Cl)c4)c3)n2)n1 |  | 
9 | > 50 µM | > 50 µM |  | Cn1nccc1Nc1ncc(Cl)c(-c2csc(C(=O)NCc3cccc(Br)c3)c2)n1 |  | 
10 | 33.4 µM | 29.4 µM |  | COc1cccc(CNC(=O)c2cc(-c3nc(Nc4ccnn4C)ncc3Cl)cs2)c1 |  | 

Further lines, the compound ahead of its results:

Row | SMILES | IC50 (RKO [1]) | IC50 (MDA-MB-231 [2]) | IC50 [3] | inhibition in vivo at 50 mg/kg (MDA-MB-231 [4]) | inhibition in vivo at 50 mg/kg (RKO [5])
11 | Cn1nccc1Nc1ncc(Cl)c(-c2csc(C(=O)NCc3ccccc3F)c2)n1 | > 50 µM | > 50 µM |  |  | 
12 | Cc1cnccc1Nc1ncc(Cl)c(-c2csc(C(=O)NCc3ccc(F)c(Cl)c3)c2)n1 | 5.41 µM | 6.26 µM |  |  | 
13 | Cn1cc(Nc2ncc(Cl)c(-c3csc(C(=O)NCc4ccc(F)c(Cl)c4)c3)n2)cn1 | 20.2 µM | 36.6 µM |  |  | 
14 | Cn1nccc1Nc1ncc(Cl)c(-c2csc(C(=O)NCCN3CCOCC3)c2)n1 | 50.6 µM | 39.4 µM |  |  | 
15 | Cn1nccc1Nc1ncc(Cl)c(-c2csc(C(=O)NCc3ccc(Cl)cc3F)c2)n1 | 39 µM | 48.2 µM |  |  | 
16 | Cn1nccc1Nc1ncc(Cl)c(-c2csc(C(=O)NC3CCOCC3)c2)n1 |  |  | 0.0254 µM |  | 
17 | Cn1cc(Nc2ncc(Cl)c(-c3csc(C(=O)NCc4ccc(F)c(Cl)c4)c3)n2)c(C(F)(F)F)n1 | > 50 µM | > 50 µM |  |  | 
18 | COc1ccccc1CNC(=O)c1cc(-c2nc(Nc3ccnn3C)ncc2Cl)cs1 | > 50 µM | > 50 µM |  |  | 
19 | CC(C)Nc1cc(-c2c[nH]c(C(=O)N[C@H](CO)c3cccc(Cl)c3)c2)c(Cl)cn1 [ULIXERTINIB] |  |  |  | 39.3% | 47.4%
